{"source": "patent US9974767B2", "about": "“Statins in the treatment of muscular dystrophies and myopathies” (University of Washington, priority 2014, dated 2018)", "key": {"[1]": {"tested_on": "mdx mice", "experiment": "Diaphragm fibrosis (fibronectin immunofluorescence, hydroxyproline assay for collagen I)", "type": "in vivo, mouse", "from_the_text": "In order to be a viable treatment approach for DMD, a drug must be efficacious at different stages of the disease and target both skeletal and cardiac muscle. […] Diaphragm force production progressively declines with age in both mdx mice and DMD. […] The replacement of muscle fibers with fibrotic connective tissue is a major cause of impaired muscle force generation in DMD and therefore an important therapeutic target. […] Quantification of total collagen I levels by hydroxyproline assay indicated a 50% reduction in fibrosis for mdx Sim mice.\nThe diaphragm most closely recapitulates the functional deficits and fibrotic deposition that occur in DMD. […] Quantification of total collagen I levels in diaphragm muscles by hydroxyproline assay also indicated a 50% reduction in fibrosis for mdx Sim mice (FIG. 13E).\nMuscles were imbedded in O.C.T compound and frozen in isopentane cooled in liquid nitrogen. […] For fluorescence quantification (CD68, fibronectin and myosin heavy chains), images were converted to grayscale in Image J and a threshold applied to calculate the area of fluorescence as a percent of the total area of the section. Fibers with central nuclei were expressed as a percent of total fibers with detectable nuclei (ie. both central and peripheral).\nTo quantify muscle fibrosis, Collagen I content was measured using the hydroxyproline assay. […]"}, "[2]": {"tested_on": "LC3A/LC3B", "experiment": "LC3A and LC3B expression in diaphragm (autophagy), Western blot", "type": "in vivo, mouse", "conditions": "old mdx Sim vs mdx Con", "from_the_text": "Autophagy is an important cellular pathway for degrading damaged proteins, organelles and protein aggregates, which are then recycled by the cell for energy use. Impaired autophagy can trigger cell death and in skeletal muscle, proper regulation of autophagy is essential for normal cellular and physiological function. Both mdx and DMD muscles show evidence of reduced autophagy and treatment of mdx mice with a low protein diet triggered autophagy, which reduced inflammation and fibrosis and enhanced muscle function. […] A key protein marker of autophagic flux is the microtubule-associated protein 1A/1B light chain 3, which has a cytosolic form (LC3A) and a lapidated form (LC3B). An increased level of LC3B relative to LC3A is indicative of enhanced autophagic flux.\nTibialis anterior (TA) muscle function was measured in situ. Mice were anaesthetized with an intraperitoneal injection of Avertin (625 mg/kg) and placed on a heated metal platform (37° C.). The distal TA tendon was dissected free and sutured to the lever arm of the force and length control system (305C-LR, Aurora Scientific). […] Fatigue recovery was measured every 2 min up to 10 min post-fatigue. […] Membranes were incubated with enhanced chemiluminescence (ECL) reagent (Amersham) and bands were detected by the FluorChem M, imaging system (Protein Simple)."}, "[3]": {"tested_on": "immortalized mdx myoblast cell line", "experiment": "Differentiation of immortalized mdx myoblasts into myotubes", "type": "cell-based, mouse", "protocol": "However, the statin concentrations required to induce these deleterious effects in vitro are typically 1 μM or greater. These concentrations are considerably (100-1000 times) higher than those found in vivo in mice and humans. […] We then carried out an in vitro experiment using an immortalized mdx myoblast cell line.\nImmortomouse mdx myoblasts were grown on gelatin coated plates and until 70% confluence in DMEM supplemented with 10% HS, 20% FBS, 0.5% chicken embryo extract and 20 units/ml of γ-interferon. […] Myotubes were washed in PBS, fixed in ice-cold methanol for 10 min, and H&E stained. Images of myotubes were taken with a Nikon inverted microscope (W.M. Keck Center, University of Washington)."}, "[4]": {"tested_on": "H2O2 (ROS)", "experiment": "H2O2 levels in diaphragm muscle homogenates, amplex red assay", "type": "in vivo, mouse", "conditions": "old mdx mice", "from_the_text": "FIG. 14A. Western blot (top) showing the levels of the autophagy proteins LC3A (upper band) and LC3B (lower band) for mdx Con and mdx Sim. GAPDH is shown as a loading control. Pooled data (bottom) for LC3A and LC3B. **P<0.01 compared to mdx Con. FIG. 14B. Hydrogen peroxide (H2O2) levels in diaphragm muscle homogenates, as quantified with a fluorescent amplex red assay. *P<0.05 compared to mdx Con. FIG. 14C. Atrogin-1 mRNA levels in quadriceps muscles were quantified by qPCR and normalized to the internal control (HPRT). *P<0.05 compared to WT Con. **P<0.01 compared to WT Con.\nTo further explore this idea, we also measured the levels of the ROS (H2O2) in diaphragm muscle homogenates. […] This highlights important differences between dystrophic muscle, where statins reduce oxidative stress derived from NOX2, and normal muscle susceptible to statin myopathy, where mitochondrial ROS increases oxidative stress."}}}
{"compound": "CCC(C)(C)C(=O)O[C@H]1C[C@@H](C)C=C2C=C[C@H](C)[C@H](CC[C@@H]3C[C@@H](O)CC(=O)O3)[C@H]21", "note": "[Simvastatin, simvastatin]", "values": [{"measurement": "attenuation of fibrosis, fibronectin immunofluorescence", "setting": "[1]; diaphragm sections, old mdx Sim vs mdx Con", "value": 50, "unit": "%"}, {"measurement": "reduction in fibrosis, total collagen I levels by hydroxyproline assay", "setting": "[1]; diaphragm, old mdx mice, 2 months treatment", "value": 50, "unit": "%"}, {"measurement": "increase of LC3B", "setting": "[2]", "value": 40, "unit": "%"}, {"measurement": "muscle differentiation, myotube formation", "setting": "[3]; 50 to 500 nM, 3 days", "value": "appeared similar to untreated cells"}, {"measurement": "doses at which simvastatin became more toxic, number of viable cells decreased", "setting": "[3]; 3 days of treatment", "value": "≥ 1", "unit": "µM"}, {"measurement": "less H2O2 compared to mdx Con", "setting": "[4]", "value": 30, "unit": "%"}]}
